Test results taken from ChEMBL document CHEMBL1201862, “PubChem BioAssay data set” (2004).
Calls of active or inactive are those of the source.

Assays:
Hexokinase HKDC1 = biological target: T1, Hexokinase HKDC1 (Homo sapiens, UniProt Q2TB90); assay: HKDC1 hexokinase inhibitors, dose response, biochemical, W721R variant (AID 504729); format: functional
T1 sequence (Q2TB90 whole entry): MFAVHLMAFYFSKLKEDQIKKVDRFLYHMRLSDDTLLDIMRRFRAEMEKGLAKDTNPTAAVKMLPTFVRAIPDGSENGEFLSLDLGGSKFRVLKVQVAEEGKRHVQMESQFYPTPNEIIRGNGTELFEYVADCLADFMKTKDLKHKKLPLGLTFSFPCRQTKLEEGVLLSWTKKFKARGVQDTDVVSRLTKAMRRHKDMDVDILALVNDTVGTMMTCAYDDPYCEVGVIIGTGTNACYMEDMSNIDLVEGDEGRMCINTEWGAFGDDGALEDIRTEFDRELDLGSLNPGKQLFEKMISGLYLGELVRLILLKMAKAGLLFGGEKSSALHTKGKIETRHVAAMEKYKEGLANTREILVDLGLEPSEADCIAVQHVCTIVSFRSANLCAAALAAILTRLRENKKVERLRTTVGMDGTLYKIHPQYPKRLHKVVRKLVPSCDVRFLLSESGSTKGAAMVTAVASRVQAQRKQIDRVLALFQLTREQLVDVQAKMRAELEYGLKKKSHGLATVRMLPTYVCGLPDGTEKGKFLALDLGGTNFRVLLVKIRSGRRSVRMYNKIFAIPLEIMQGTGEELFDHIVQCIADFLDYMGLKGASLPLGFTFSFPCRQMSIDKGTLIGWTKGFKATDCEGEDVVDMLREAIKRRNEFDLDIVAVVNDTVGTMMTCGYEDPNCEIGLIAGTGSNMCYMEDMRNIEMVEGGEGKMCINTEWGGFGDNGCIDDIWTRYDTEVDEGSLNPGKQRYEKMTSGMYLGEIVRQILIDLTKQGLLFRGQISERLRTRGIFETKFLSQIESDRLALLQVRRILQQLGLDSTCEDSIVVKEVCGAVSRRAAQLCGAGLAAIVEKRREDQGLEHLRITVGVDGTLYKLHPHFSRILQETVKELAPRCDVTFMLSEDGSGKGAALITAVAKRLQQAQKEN

[1] = biological target: Glucose-6-phosphate 1-dehydrogenase (Homo sapiens, UniProt P11413); assay: human G6PD enzyme inhibitors, dose response, selectivity assay for P. falciparum G6PD inhibitor project, biochemical, fluorescence (AID 504792); format: functional
HeLa = assay: HeLa cell cytotoxicity, dose response, cytotoxicity control, 24 h, cherry-picked samples (AID 504726); format: functional, cell-based; settings: Homo sapiens;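 note: potency for cytotoxicity as loss of luminescence signal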
Aminopeptidase N = biological target: T2, Aminopeptidase N (Plasmodium falciparum FcB1/Columbia, UniProt O96935); assay: P. falciparum M1AAP inhibitors, biochemical, fluorogenic H-Leu-NHMec substrate, 1536-well (AID 1445); parameters: species or system Plasmodium falciparum 3D7, 3D7
T2 sequence (O96935 whole entry): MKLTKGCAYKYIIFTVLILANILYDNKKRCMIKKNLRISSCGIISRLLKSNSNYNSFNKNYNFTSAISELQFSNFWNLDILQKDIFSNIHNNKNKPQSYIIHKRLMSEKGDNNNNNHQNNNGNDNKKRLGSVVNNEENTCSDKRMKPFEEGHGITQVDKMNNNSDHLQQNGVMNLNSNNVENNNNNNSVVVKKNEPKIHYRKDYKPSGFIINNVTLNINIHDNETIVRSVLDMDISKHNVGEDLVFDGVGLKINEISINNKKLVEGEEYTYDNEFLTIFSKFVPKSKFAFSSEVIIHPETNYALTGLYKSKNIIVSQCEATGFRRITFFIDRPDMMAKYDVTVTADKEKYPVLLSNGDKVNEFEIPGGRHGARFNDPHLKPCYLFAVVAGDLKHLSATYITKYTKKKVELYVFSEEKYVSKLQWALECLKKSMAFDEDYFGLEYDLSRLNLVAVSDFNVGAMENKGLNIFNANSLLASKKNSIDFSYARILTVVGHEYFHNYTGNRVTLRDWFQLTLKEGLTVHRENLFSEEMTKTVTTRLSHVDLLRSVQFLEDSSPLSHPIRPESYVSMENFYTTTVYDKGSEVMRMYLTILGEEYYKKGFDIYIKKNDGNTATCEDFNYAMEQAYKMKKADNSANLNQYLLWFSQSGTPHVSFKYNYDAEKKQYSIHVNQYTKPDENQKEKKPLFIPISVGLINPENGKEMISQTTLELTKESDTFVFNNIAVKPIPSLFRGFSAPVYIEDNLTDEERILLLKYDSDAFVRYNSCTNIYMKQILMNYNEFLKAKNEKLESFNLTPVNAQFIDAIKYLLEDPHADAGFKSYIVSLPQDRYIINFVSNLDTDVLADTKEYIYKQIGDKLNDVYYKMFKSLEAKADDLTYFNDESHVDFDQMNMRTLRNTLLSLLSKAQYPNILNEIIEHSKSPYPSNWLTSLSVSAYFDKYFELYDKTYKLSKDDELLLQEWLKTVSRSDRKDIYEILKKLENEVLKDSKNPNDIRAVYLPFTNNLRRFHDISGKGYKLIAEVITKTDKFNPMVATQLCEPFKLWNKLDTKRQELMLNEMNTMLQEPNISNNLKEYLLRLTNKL

[2] = biological target: FAD-linked sulfhydryl oxidase ALR (Homo sapiens, UniProt P55789); assay: inhibitors of human ALR sulfhydryl oxidase, dose response, biochemical, H2O2 detection, luminescence, cherry-pick (AID 493248)
[3] = biological target: 26S proteasome non-ATPase regulatory subunit 14 (Homo sapiens, UniProt O00487); assay: inhibition of proteasome subunit RPN11 – biochemical, fluorescence polarization, uHTS hits, confirmation (AID 602368); format: functional
Prothrombin = Prothrombin (Bos taurus, UniProt P00735); assay: thrombin inhibition, dose response, biochemical, fluorescence polarization, uHTS hits (AID 602369); format: functional
[4] = Vero E6 cell cytotoxicity, dose response, cytotoxicity control for non-replicating M. tuberculosis project, secondary assay (AID 492998); format: functional, VeroE6; settings: Vero C1008
INS1 = assay: beta cell apoptosis inhibitors, cytokine rescue, dose response, luminescence, retest (AID 449756); format: functional, cell-based; settings: Rattus norvegicus;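 note: cell death triggered by IL-1 beta plus TNF-alpha plus IFN-gamma mixture; protective hits raise ATP signal compared with cytokine alone wells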
[5] = biological target: 72 kDa type IV collagenase (Homo sapiens, UniProt P08253); assay: Dose Response validation of uHTS RPN11 inhibitor hits using a MMP-2 Fluorescence assay.; format: functional
[6] = THP-1 cell cytotoxicity, dose response, cytotoxicity control for non-replicating M. tuberculosis project (AID 489025); format: functional
[7] = C. albicans growth with fluconazole, confirmation, fluorescence, retest (AID 2467); format: functional, cell-based
cells [8] = format: functional, cell-based
Albumin = Albumin (Bos taurus, UniProt P02769); assay: Counterscreen for inhibitors of T-cell receptor (TCR)-CD3 interaction: Fluorescence-based biochemical high throughput dose response assay to identify inhibitors of T-cell receptor (TCR)-CD3 interaction using a TAMRA-labeled BSA probe.; format: functional
cells [9] = format: functional, cell-based; remark: listed apart in the source
[10] = HepG2 cell cytotoxicity, dose response, cytotoxicity control for non-replicating M. tuberculosis project (AID 489018); format: functional; settings: Mycobacterium tuberculosis
[11] = NIH-3T3 fibroblast cytotoxicity, dose response, cytotoxicity control, cell-based, fluorescence, Alamar Blue, secondary assay (AID 2327); format: functional;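 note: NIH-3T3 mouse fibroblasts cultured with fluconazole at 8 µg/mL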
[12] = biological target: T3, Short transient receptor potential channel 4 (Mus musculus, UniProt Q9QUQ5); assay: mouse TRPC4 channel inhibitors, dose response, cell-based, HEK293 TRPC4/mu-opioid, Fluo-4 calcium (AID 434942); format: functional;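 note: potency of inhibitors blocking the TRPC4 calcium response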
T3 sequence (Q9QUQ5 whole entry): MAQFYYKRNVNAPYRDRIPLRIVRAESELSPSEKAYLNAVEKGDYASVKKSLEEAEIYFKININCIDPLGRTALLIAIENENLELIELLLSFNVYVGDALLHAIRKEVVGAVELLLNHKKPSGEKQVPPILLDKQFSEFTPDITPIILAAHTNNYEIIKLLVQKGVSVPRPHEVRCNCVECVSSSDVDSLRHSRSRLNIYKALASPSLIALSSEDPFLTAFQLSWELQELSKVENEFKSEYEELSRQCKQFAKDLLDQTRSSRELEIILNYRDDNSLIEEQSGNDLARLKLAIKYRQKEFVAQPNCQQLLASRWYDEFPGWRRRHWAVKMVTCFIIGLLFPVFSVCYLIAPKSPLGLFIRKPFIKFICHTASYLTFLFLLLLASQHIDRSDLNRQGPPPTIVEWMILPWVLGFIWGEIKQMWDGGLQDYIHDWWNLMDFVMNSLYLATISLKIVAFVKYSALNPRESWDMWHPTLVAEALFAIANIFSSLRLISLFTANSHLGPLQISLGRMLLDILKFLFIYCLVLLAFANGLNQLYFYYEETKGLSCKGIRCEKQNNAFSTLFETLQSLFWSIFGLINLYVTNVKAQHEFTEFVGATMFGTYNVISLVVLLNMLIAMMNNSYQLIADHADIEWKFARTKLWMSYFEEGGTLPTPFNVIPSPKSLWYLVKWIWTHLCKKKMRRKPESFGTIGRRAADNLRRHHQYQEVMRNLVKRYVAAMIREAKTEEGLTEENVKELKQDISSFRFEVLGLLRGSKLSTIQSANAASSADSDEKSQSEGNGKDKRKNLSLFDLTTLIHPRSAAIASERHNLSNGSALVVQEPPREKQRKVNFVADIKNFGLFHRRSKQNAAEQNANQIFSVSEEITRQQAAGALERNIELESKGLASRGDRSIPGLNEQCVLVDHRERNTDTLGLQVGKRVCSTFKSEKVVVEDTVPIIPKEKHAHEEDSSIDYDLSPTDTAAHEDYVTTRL

[13] = Luminescence Cell-Based Dose Retest to Confirm Inhibitors of Cancer Stem Cells. [Related pubchem assays (depositor defined):AID2717, AID2721]; format: functional; settings: Homo sapiens
CAAX prenyl protease 2 = biological target: T4, CAAX prenyl protease 2 (Homo sapiens, UniProt Q9Y256); assay: human Rce1 protease inhibitors, dose response, biochemical, yeast membranes, quenched-peptide fluorescence, cherry-pick (AID 588849)
T4 sequence (Q9Y256 whole entry): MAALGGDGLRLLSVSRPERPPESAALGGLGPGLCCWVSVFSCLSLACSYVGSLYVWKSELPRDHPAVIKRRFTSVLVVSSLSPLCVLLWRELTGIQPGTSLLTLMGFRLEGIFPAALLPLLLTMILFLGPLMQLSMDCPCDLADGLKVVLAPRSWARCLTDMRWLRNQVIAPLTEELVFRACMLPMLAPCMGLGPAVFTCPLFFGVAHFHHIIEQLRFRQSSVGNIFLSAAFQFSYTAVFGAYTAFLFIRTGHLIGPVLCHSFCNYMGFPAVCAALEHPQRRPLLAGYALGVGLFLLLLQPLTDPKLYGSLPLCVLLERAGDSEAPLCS

Trypsin = Trypsin (Sus scrofa, UniProt P00761); assay: porcine trypsin inhibitors, dose response, selectivity assay for Rce1 protease inhibitor project, biochemical, quenched peptide fluorescence, cherry-pick (AID 488789)
Vero = assay: Vero E6 cell cytotoxicity, SAR follow-up, cytotoxicity control for West Nile virus antiviral project, synthesized analogs (AID 2244); format: functional; settings: Chlorocebus sabaeus
Nonstructural protein 1 = Nonstructural protein 1 (Influenza A virus, UniProt Q194T2); format: functional, Influenza A virus (A/California/07/2009(H1N1))
Chain of Nonstructural protein 1 (Q194T2 whole entry): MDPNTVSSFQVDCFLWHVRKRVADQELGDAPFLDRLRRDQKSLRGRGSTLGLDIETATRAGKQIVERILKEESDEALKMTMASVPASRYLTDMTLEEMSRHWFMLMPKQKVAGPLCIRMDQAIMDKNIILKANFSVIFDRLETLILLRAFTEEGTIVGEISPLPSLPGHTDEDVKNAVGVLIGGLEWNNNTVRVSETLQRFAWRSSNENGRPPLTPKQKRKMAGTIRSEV

Chain of FAD-linked sulfhydryl oxidase ALR (P55789 whole entry): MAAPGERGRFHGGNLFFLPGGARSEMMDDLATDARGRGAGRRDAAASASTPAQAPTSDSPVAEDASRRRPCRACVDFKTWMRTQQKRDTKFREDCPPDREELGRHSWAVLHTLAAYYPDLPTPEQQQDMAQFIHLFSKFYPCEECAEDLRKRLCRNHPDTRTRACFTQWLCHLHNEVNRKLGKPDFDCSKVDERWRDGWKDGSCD
Chain of 72 kDa type IV collagenase (P08253 whole entry): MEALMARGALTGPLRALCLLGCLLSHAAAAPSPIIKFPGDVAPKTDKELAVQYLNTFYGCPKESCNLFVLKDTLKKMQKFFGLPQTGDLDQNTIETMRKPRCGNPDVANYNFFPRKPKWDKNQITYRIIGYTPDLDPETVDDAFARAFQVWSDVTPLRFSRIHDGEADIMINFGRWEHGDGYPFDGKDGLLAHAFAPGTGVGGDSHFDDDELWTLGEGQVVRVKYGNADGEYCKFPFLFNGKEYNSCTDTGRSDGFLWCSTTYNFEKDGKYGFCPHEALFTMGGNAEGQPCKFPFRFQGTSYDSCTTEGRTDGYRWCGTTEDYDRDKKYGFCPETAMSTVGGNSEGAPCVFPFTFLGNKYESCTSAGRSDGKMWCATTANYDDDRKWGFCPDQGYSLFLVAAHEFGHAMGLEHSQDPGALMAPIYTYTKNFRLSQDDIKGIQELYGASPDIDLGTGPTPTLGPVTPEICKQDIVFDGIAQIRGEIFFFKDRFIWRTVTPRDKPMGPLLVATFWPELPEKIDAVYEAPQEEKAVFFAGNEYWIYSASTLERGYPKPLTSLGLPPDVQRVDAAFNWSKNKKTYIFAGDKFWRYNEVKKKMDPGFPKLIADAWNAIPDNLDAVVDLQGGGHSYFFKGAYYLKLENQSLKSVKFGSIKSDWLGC
Chain of 26S proteasome non-ATPase regulatory subunit 14 (O00487 whole entry): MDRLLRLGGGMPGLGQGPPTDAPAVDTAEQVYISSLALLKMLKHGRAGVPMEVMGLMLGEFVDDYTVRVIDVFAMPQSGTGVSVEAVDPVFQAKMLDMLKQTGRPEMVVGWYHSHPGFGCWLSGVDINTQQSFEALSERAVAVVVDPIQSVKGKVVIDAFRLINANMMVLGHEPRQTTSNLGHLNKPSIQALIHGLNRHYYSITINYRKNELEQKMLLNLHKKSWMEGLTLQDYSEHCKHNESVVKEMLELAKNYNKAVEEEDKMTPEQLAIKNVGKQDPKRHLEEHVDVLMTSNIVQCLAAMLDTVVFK
Chain of Glucose-6-phosphate 1-dehydrogenase (P11413 whole entry): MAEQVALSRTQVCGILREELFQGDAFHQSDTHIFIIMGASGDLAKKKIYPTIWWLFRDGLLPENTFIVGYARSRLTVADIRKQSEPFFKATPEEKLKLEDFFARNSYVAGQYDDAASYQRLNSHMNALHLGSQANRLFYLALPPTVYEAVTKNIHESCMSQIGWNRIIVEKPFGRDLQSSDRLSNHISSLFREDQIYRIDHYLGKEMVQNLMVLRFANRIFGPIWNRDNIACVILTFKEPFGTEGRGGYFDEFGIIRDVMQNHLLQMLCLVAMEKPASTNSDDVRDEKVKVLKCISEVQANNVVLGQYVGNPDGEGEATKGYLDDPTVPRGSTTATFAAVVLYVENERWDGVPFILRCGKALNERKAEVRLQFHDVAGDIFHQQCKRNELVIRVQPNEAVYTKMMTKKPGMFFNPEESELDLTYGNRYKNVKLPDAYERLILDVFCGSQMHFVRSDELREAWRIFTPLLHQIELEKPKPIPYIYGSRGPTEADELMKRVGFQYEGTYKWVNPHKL
Chain of Trypsin (P00761 whole entry): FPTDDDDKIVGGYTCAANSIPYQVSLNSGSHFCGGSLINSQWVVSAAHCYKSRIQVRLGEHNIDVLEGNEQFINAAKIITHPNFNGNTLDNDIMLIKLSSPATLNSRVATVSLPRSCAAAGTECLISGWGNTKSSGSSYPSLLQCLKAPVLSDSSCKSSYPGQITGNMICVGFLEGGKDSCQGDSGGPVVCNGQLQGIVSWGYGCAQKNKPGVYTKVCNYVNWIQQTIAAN
Chain of Albumin (P02769 whole entry): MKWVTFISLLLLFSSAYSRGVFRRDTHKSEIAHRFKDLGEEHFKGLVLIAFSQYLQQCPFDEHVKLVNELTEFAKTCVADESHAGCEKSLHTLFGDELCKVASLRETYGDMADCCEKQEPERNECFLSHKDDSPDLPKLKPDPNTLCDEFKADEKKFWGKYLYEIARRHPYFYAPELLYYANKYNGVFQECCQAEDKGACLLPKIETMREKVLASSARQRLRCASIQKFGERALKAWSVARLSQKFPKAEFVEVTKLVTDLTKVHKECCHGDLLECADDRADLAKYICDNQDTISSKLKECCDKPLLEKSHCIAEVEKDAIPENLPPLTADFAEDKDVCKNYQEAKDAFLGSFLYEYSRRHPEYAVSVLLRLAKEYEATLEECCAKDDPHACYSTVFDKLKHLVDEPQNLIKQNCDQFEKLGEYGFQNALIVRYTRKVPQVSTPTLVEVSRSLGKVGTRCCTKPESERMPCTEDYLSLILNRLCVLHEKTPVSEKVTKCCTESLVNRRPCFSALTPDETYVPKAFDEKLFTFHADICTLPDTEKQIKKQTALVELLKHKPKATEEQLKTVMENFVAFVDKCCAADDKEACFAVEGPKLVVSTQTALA

COc1cc(/C=C2\SC(c3ccc(C)cc3)=NC2=O)ccc1O
IC50 (Hexokinase HKDC1): 38.3 µM (inactive)
IC50 [1]: > 80 µM (inactive)

COc1ccc(C2c3ccc(O)cc3Oc3ncn(CCCO)c(=N)c32)cc1OC (stereo not drawn)
AC50 (HeLa): > 350 µM (inactive)

CC(=O)Nc1cccc(NC(=O)C2CCCN2C(=O)Nc2cccc(F)c2)c1 (stereo not drawn)
IC50 (Aminopeptidase N): 68.9 µM (active)

Cc1ccc2nc(C)cc(N/N=C/c3cccc(O)c3)c2c1
AC50 [2]: 1.02 µM (active)

O=C(N/N=C/c1cc(Br)cc(Cl)c1O)c1ccc2c(c1)OCO2
IC50 [3]: 15.5 µM (active)
IC50 (Prothrombin): 33.8 µM (active)
CC50 [4]: 7.35 µM (active)
AC50 (INS1): 4.16 µM (active)
IC50 [5]: 65.4 µM (active)
CC50 [6]: 1.95 µM (active)
EC50 [7]: 1.03 µM (active)
EC50 (cells [8]): > 350 µM (not active)
IC50 (Albumin): > 94.1 µM (inactive)
EC50 (cells [9]): 22.1 µM (active)
CC50 [10]: 16.1 µM (active)
EC50 [11]: > 150 µM (inactive)

COc1ccc(-c2csc(NC(=O)Cc3cccc4ccccc34)c2C(=O)O)cc1
EC50 [12]: 7.5 µM (active)
IC50 (Aminopeptidase N): 42.3 µM (active)

Cc1ccc(NNC(=O)c2ccno2)cc1Cl
AC50 [13]: 2.34 µM (active)
AC50 (INS1): 7.1 µM (active)
AC50 [2]: 0.223 µM (active)

O=[N+]([O-])c1ccc(NN=Cc2ccc(O)cc2O)nc1
IC50 (Hexokinase HKDC1): 6.23 µM (active)

COc1cc(Cn2c(N)c(C(=O)NCc3ccco3)c3nc4ccccc4nc32)cc(OC)c1OC
AC50 (CAAX prenyl protease 2): 3.86 µM (active)
AC50 (Trypsin): 22.3 µM (active)

COc1ccc(-c2csc(NC(=O)c3ccc(Cl)cc3)n2)cc1
CC50 (Vero): > 40 µM (active)

O=C(Nc1nc(-c2ccc(Cl)cc2)cs1)c1cccc(Cl)c1
CC50 (Vero): < 0.08 µM (active)

COc1ccc(/C=N/Nc2ccccn2)cc1OC
AC50 [2]: 0.771 µM (active)

Cc1cc(O)nc(NN/C=C2/C(=O)N(c3ccccc3)C(=O)c3ccccc32)n1
IC50 [3]: 18.4 µM (active)
IC50 (Prothrombin): 37.2 µM (active)
IC50 [5]: > 100 µM (inactive)
IC50 (Nonstructural protein 1): 12 µM (active)
IC50 (Aminopeptidase N): 47 µM (active)
